Test: Inhibition of influenza A virus chicken/Nakorn-Patom/Thailand/CU-K2-2004 Neuraminidase N1 at pH 7.4 by DIANA assay

Structure (SMILES) | Ki
CCC(CC)O[C@@H]1C=C(C(=O)O)C[C@H](NCc2cn(CC(C)(CO)CO)nn2)[C@H]1NC(C)=O | 0.71 µM
CCC(CC)O[C@@H]1C=C(C(=O)O)C[C@H](n2cc(CNc3ccc(C(N)=O)c(C(F)(F)F)c3)nn2)[C@H]1NC(C)=O | 5 µM
CCC(CC)O[C@@H]1C=C(C(=O)O)C[C@H](NCc2cn(CCN3CCS(=O)(=O)CC3)nn2)[C@H]1NC(C)=O | 6.2 µM
CCC(CC)O[C@@H]1C=C(C(=O)O)C[C@H](NCc2cn(CC(=O)O)nn2)[C@H]1NC(C)=O | 4.3 µM
CCC(CC)O[C@@H]1C=C(C(=O)O)C[C@H](NCc2cn(CC(=O)NC)nn2)[C@H]1NC(C)=O | 0.74 µM
CCC(CC)O[C@@H]1C=C(C(=O)O)C[C@H](NCc2cn(CCO)nn2)[C@H]1NC(C)=O | 0.47 µM
CCC(CC)O[C@@H]1C=C(C(=O)O)C[C@H](n2cc(C[C@H](N)C(=O)O)nn2)[C@H]1NC(C)=O | 25 µM
CCC(CC)O[C@@H]1C=C(C(=O)O)C[C@H](n2cc(-c3ccsc3)nn2)[C@H]1NC(C)=O | 4 µM
CCC(CC)O[C@@H]1C=C(C(=O)O)C[C@H](n2cc(CNc3ccccc3C(N)=O)nn2)[C@H]1NC(C)=O | 5.1 µM
CCC(CC)O[C@@H]1C=C(C(=O)O)C[C@H](n2cc(CNc3cccc(C(F)(F)F)c3)nn2)[C@H]1NC(C)=O | 1.9 µM
CCC(CC)O[C@@H]1C=C(C(=O)O)C[C@H](n2cc(CNc3ccccc3)nn2)[C@H]1NC(C)=O | 5 µM
CCC(CC)O[C@@H]1C=C(C(=O)O)C[C@H](n2cc(CO)nn2)[C@H]1NC(C)=O | 5.3 µM
CCC(CC)O[C@@H]1C=C(C(=O)O)C[C@H](n2cc(CNc3ccc(NC(C)=O)cc3)nn2)[C@H]1NC(C)=O | 5.6 µM
CCC(CC)O[C@@H]1C=C(C(=O)O)C[C@H](NCc2cn(CC(=O)N(C)C)nn2)[C@H]1NC(C)=O | 3.1 µM
CCC(CC)O[C@@H]1C=C(C(=O)O)C[C@H](n2cc(-c3cccs3)nn2)[C@H]1NC(C)=O | 7.1 µM
CCC(CC)O[C@@H]1C=C(C(=O)O)C[C@H](n2cc(CNc3cc(F)ccc3OC)nn2)[C@H]1NC(C)=O | 11 µM
CCC(CC)O[C@@H]1C=C(C(=O)O)C[C@H](n2cc(COCC(C)(CO)CO)nn2)[C@H]1NC(C)=O | 49 µM
CCC(CC)O[C@H]1CC(C(=O)O)=C[C@@H](n2cc(CN3CCS(=O)(=O)CC3)nn2)[C@@H]1NC(C)=O | 94 µM
CCC(CC)O[C@@H]1C=C(C(=O)O)C[C@H](n2cc(CN(C)c3ccc(OC)cc3)nn2)[C@H]1NC(C)=O | 8.1 µM
CCC(CC)O[C@@H]1C=C(C(=O)O)C[C@H](n2cc(C[C@@]3(C(=O)O)CCCN3)nn2)[C@H]1NC(C)=O | 49 µM
